Data set [1] has as its target T1, SPT (Homo sapiens, UniProt O15269+O15270).
T1 sequence (O15269 1-473): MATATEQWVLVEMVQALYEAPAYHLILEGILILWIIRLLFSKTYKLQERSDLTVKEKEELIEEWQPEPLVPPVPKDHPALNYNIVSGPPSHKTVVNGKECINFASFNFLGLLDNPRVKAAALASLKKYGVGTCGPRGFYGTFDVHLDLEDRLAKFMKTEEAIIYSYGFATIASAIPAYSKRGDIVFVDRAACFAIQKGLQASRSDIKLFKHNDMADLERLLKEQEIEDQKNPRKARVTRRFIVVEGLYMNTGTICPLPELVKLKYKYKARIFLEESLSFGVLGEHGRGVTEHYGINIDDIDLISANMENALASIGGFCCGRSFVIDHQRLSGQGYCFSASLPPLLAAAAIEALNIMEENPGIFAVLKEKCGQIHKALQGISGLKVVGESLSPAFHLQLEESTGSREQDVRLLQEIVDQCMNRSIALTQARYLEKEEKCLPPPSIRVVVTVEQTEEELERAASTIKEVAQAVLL
T1 sequence (O15270 1-562): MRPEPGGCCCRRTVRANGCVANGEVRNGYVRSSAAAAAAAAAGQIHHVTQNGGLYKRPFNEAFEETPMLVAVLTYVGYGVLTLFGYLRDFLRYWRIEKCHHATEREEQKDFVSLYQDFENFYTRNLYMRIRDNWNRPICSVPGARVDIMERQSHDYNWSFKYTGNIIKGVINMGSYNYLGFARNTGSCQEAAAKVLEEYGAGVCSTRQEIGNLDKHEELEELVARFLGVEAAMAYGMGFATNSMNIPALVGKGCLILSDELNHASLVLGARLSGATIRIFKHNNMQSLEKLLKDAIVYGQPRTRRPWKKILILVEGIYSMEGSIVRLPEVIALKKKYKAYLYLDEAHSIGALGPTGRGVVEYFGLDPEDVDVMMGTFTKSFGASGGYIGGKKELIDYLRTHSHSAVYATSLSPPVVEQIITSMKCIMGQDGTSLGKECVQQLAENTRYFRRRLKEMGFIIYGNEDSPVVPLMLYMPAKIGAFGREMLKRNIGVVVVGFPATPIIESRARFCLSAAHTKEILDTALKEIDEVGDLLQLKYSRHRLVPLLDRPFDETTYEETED
The following applies: literature; cited from earlier work.

In data set [2] the test system is ApoE knockout mice. The following applies: literature; cited from earlier work.
The target in data set [3] is T1, SPT. The data set can be described thus: Serine palmitoyltransferase activity, Assay C ([3H]serine incorporation into lipids, cell homogenates). The class given is biochemical. Particulars: 37° C. for 20 min, at the doses indicated. The procedure: An alternative assay for evaluating inhibition of SPT, the enzyme present in commonly cultured cells, is performed with CHO cells or a human cell line. Cells are washed three times with ice-cold phosphate-buffered saline (PBS). A total of 0.5 mL of lysis buffer [50 mM Hepes (pH 8.0) containing 5 mM ethylenediaminetetraacetic acid (EDTA) and 5 mM dithiothreitol (DTT)] is added to each dish. The cells are scraped using a rubber policeman, and are then transferred to a test tube on ice. The cell suspension is sonicated three times for 5 s at 1-2 min intervals on ice. Protein concentrations in cell homogenates are measured using a Bradford protein assay kit (Bio-Rad). […] The radioactivity is measured with a LS6000TA liquid scintillation counter (Beckman). Nonspecific conversion of [^3H] serine to chloroform-soluble species is determined by performing the assay in the absence of palmitoyl CoA. […]
An alternative assay using a non-chlorinated solvent modification of the Blye and Dyer lipid extraction method reported in Smedes (Smedes, F. (1999) Analyst 124, 1711-18) is employed to evaluate exemplary compounds. […] An accurately measured portion of the organic layer (4.0 ml) is added to a scintillation vial with 1 ml of water. […] The amount of [^3H] serine radioactivity incorporated into lipids is quantified in a scintillation counter. […]

Data set [4] has as its system mice. The following applies: literature, cited from earlier work; for protective effect / prevention of progression of emphysema: VEGF receptor blockade model.
Data set [5] relates to diabetic Zucker fatty rat model. The following applies: literature; cited from earlier work.
For data set [6], the system named is Rat pancreatic islets. In words: Protection of islets by an SPT inhibitor (propidium iodide staining, flow cytometry). Type of data set: cell-based. The following applies: 3 days. The procedure:
Islet protection by an exemplary compound is evaluated in an assay according to Eitel, K, et al. Biochem. Biophys. Res. Commun. 299: 853-6 (2002), and results obtained in this assay are reported below in Table 4. Rat pancreatic islets are cultured with control medium (RPMI 1640 supplemented with 10% fetal bovine serum, antibiotics and made 8% in glucose) or in medium supplemented with I millimolar sodium palmitate (Fatty Acid Medium) during a period of 3 days. The culture medium is changed after 2 days to an identical composition culture medium with fresh inhibitor in the appropriate wells. Cells are stained with propidium iodide (PI), washed and propidium staining of cells (as a measure of cellular DNA content) is assessed by flow cytometry. The percentage of cells having less than the normal amount of PI staining is considered to be apoptotic cells (Eitel, K, et al. (2002)).

Turning to `CCCCCCC(=O)CCCCCC/C=C/C[C@@H](O)[C@H](O)[C@@](N)(CO)C(=O)O` [ISP-1], the “IC50 for inhibition of SPT” value in data set [1] was “sub-nanomolar”. Further, the atherosclerotic plaque entry in data set [2] was “dramatic reduction in atherosclerotic plaque”. Besides, the “inhibition of SPT ([3H] serine radioactivity incorporated into lipids)” value in data set [3] is “potent but non-selective inhibition”. Besides, in data set [4], the “protective effect / prevention of progression of emphysema” value is “very strong protective effect”.
`CCCCCCCCc1ccc(CCC(N)(CO)CO)cc1` [FTY720]: the “activity against / inhibition of SPT” value in data set [1] is “do not inhibit SPT”.
For the molecule `CCCC[C@@H](C)[C@@H](OC(=O)C[C@@H](CC(=O)O)C(=O)O)[C@H](C[C@@H](C)C[C@H](O)CCCC[C@@H](O)C[C@H](O)[C@H](C)N)OC(=O)C[C@@H](CC(=O)O)C(=O)O` [fumonisin B1], in data set [4], the “protective effect / prevention of progression of emphysema” value is reported as “less effective”. Moreover, the toxicity entry in data set [4] (emphysema model, higher doses) is “some toxicity at higher doses”.
`CCCCCCCCc1ccc(CCC(N)(CO)C(=O)O)cc1` (stereo not shown) [compound 2]: the “activity against / inhibition of SPT” value in data set [1] was “did not exhibit activity against SPT”.
Regarding `N[C@@H]1CON=C1O` [cycloserine], in data set [1], the “activity against / inhibition of SPT” value is “weak inhibition”. The “beta cell protective effect” value in data set [5] is recorded as “≈ 50%”.
Take `CCCCCCCOc1cccc(CCC(O)C(O)C(N)C(=O)O)c1` (stereo not shown) [Compound 12]: the “inhibition of SPT ([3H] serine radioactivity incorporated into lipids)” value in data set [3] is listed as “moderate activity”. Also, the “protection of islet cells from fatty acid treatment (apoptotic cells by PI staining)” value in data set [6] (medium with sodium palmitate (Fatty Acid Medium)) was “fully protect cells from the fatty acid treatment”. Further, in data set [6] (versus control medium), the “benefit in comparison to treatment with the control medium (apoptotic cells by PI staining)” value is recorded as “imparts a benefit in comparison to treatment with the control medium”.

These data come from US20080139455A1, “COMPOUNDS AND METHODS OF TREATING METABOLIC SYNDROME AND INFLAMMATION” (Forbes Medi-Tech (Research), Inc., priority 2006, published 2008).
